# Experimental data taken from article PMC10725504, “The co-crystal structure of Cbl-b and a small-molecule inhibitor reveals the mechanism of Cbl-b inhibition” (Communications Biology, 2023).
# Biological target: T1, Cbl-b (Homo sapiens, UniProt Q13191)
# T1 construct: gene CBLB; TKBD-LHR-RING (38–427) and full-length (1–982)
# Test: FP-based displacement assay (fluorescent probe)
# Format: binding
# T1 sequence (Q13191 38-427): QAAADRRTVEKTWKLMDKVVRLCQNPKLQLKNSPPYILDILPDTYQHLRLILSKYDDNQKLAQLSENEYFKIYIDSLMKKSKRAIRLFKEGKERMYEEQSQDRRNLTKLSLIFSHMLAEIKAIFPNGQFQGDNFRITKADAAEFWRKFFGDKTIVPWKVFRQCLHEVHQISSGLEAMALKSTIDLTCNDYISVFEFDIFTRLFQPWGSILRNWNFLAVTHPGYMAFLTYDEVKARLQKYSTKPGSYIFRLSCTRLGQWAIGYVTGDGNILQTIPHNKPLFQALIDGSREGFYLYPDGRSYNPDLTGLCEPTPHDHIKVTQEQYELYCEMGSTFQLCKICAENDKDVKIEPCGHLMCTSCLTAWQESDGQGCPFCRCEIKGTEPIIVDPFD
structure (smiles),measurement,value
CC1=CC(C)=[N+]2C1=Cc1ccc(CCC(=O)NCCOCCOCCOCCNCc3ccc(C(=O)Nc4cccc([C@H](C)Cc5nncn5C)c4)nc3C3CC3)n1[B-]2(F)F [C7102],FP-based displacement assay (fluorescent probe),C7683 displaced binding of C7102 to both TKBD-LHR-RING and full-length proteins in a concentration dependent manner
